In article PMC9653409, “Generative deep learning enables the discovery of a potent and selective RIPK1 inhibitor” (Nature Communications, 2022):
Read-outs that look alike come from different tables or passages of the source.

How the values were obtained:
Assay in all cases: Kinase inhibitory activity profiling of RI-962@10 µM (406 kinases, Eurofins)
Assay type in all cases: biochemical
[1] = molecular target: panel of human kinases (kinase named in endpoint) (Homo sapiens, UniProt P51812); conditions: 10 µM; read-out: Activity (%), Rsk2(h)
panel of human kinases (kinase named in endpoint) (Homo sapiens, UniProt P51812), sequence (P51812 whole entry): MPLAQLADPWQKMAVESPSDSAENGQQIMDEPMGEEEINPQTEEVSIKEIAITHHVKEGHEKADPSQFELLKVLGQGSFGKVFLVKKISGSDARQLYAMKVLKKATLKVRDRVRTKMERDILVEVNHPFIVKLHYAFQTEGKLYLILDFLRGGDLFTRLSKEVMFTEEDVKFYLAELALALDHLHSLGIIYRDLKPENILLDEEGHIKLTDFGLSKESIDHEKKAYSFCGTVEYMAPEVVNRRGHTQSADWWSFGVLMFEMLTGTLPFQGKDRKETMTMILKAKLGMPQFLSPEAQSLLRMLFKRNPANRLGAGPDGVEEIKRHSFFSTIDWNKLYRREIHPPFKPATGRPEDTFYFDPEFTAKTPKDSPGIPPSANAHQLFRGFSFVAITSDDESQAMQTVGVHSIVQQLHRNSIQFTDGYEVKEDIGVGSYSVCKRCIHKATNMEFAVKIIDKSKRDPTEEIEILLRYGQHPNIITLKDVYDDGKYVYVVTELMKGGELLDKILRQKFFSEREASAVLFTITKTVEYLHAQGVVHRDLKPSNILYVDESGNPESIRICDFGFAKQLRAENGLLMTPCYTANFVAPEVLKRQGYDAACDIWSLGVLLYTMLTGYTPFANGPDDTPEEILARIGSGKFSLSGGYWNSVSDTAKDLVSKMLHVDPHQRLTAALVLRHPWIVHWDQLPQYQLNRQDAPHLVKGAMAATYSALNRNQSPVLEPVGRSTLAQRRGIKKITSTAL
Outline: (§1)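 Radiometric filter-binding kinase assays: enzyme preincubated 15 min with compound in 8 mM MOPS pH 7.0, 0.2 mM EDTA, 250 μM peptide substrate, 10 mM magnesium acetate, 10 μM [γ-33P]-ATP. Reaction started with Mg/ATP, run 40 min at room temperature, stopped with phosphoric acid; 33P incorporation read by scintillation counting. Other kinases by similar protocols.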

[2] = molecular target: panel of human kinases (kinase named in endpoint) (Homo sapiens, UniProt Q9UL54); conditions: 10 µM; read-out: Activity (%), TAO2(h)
Outline: as §1

[3] = molecular target: panel of human kinases (kinase named in endpoint) (Homo sapiens, UniProt P31751); conditions: 10 µM; read-out: Activity (%), PKBβ(h)
Outline: as §1

[4] = molecular target: panel of human kinases (kinase named in endpoint) (Homo sapiens, UniProt P07948); conditions: 10 µM; read-out: Activity (%), Lyn(h)
panel of human kinases (kinase named in endpoint) (Homo sapiens, UniProt P07948), sequence (P07948 whole entry): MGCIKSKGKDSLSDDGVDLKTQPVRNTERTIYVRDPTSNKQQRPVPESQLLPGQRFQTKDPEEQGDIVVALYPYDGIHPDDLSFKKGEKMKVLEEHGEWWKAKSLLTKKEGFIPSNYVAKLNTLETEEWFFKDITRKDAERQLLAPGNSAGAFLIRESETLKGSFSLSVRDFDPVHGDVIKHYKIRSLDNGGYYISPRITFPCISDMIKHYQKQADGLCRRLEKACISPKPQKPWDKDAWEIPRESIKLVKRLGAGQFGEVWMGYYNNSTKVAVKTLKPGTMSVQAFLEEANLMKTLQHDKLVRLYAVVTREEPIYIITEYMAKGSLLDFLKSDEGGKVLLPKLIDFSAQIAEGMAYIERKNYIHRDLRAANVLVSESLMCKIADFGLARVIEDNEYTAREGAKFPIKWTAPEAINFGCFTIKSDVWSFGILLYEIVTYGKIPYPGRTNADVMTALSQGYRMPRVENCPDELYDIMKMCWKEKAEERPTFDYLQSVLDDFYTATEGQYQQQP
Outline: as §1

[5] = molecular target: panel of human kinases (kinase named in endpoint) (Homo sapiens, UniProt O60285); conditions: 10 µM; read-out: Activity (%), ARK5(h)
Outline: as §1

[6] = molecular target: panel of human kinases (kinase named in endpoint) (Homo sapiens, UniProt P42681); conditions: 10 µM; read-out: Activity (%), Txk(h)
panel of human kinases (kinase named in endpoint) (Homo sapiens, UniProt P42681), sequence (P42681 whole entry): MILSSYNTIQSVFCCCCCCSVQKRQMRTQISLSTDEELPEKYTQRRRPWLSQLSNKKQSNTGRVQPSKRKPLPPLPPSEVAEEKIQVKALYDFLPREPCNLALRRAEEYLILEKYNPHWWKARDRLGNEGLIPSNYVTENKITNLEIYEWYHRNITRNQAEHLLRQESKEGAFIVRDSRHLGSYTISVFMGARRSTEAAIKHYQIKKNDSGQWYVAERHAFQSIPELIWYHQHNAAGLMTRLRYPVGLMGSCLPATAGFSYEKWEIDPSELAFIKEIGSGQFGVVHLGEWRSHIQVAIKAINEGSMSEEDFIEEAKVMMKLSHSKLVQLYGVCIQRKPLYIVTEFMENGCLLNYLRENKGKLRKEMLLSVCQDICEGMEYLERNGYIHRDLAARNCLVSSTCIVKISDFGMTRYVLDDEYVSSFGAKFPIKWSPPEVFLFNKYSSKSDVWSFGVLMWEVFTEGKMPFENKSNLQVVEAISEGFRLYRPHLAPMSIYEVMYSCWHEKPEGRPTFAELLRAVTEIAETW
Outline: as §1

[7] = molecular target: panel of human kinases (kinase named in endpoint) (Homo sapiens, UniProt O14757); conditions: 10 µM; read-out: Activity (%), CHK1(h)
Outline: as §1

[8] = molecular target: panel of human kinases (kinase named in endpoint) (Homo sapiens, UniProt P36896); conditions: 10 µM; read-out: Activity (%), ALK4(h)
Outline: as §1

[9] = molecular target: panel of human kinases (kinase named in endpoint) (Homo sapiens, UniProt P10721, D816V); conditions: 10 µM; read-out: Activity (%), cKit(D816V)(h)
panel of human kinases (kinase named in endpoint) (Homo sapiens, UniProt P10721, D816V), sequence (P10721 26-976 D816V): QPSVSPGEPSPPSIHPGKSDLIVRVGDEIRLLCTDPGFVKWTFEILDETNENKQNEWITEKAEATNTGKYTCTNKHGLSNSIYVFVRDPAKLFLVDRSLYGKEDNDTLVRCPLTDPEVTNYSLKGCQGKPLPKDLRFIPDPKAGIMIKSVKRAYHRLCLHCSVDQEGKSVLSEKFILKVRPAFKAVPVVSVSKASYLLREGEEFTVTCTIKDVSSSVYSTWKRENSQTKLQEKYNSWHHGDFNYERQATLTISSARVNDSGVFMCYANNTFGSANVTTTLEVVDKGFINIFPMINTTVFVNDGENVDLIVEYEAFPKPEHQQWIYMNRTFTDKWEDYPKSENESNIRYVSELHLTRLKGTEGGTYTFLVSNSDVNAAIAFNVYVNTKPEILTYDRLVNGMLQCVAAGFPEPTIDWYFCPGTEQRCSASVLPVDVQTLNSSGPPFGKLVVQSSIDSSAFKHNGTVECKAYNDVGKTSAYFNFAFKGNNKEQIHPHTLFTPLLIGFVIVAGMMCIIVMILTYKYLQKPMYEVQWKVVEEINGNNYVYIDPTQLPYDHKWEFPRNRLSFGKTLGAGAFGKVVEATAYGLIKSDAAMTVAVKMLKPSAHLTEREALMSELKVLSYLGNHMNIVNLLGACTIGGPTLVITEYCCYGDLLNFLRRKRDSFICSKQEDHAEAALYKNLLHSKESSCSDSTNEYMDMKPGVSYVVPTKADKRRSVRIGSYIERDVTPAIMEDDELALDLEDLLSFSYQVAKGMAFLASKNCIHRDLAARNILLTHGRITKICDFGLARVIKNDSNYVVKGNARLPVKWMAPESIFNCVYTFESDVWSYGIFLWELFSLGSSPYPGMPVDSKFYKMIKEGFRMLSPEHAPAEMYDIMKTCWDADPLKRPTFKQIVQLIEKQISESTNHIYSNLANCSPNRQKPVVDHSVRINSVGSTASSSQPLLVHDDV
Outline: as §1

[10] = molecular target: panel of human kinases (kinase named in endpoint) (Homo sapiens, UniProt Q9NSY1); conditions: 10 µM; read-out: Activity (%), BIKe(h)
Outline: as §1

[11] = molecular target: panel of human kinases (kinase named in endpoint) (Homo sapiens, UniProt Q14164); conditions: 10 µM; read-out: Activity (%), IKKε(h)
Outline: as §1

[12] = molecular target: panel of human kinases (kinase named in endpoint) (Homo sapiens, UniProt Q08345); conditions: 10 µM; read-out: Activity (%), DDR1(h)
panel of human kinases (kinase named in endpoint) (Homo sapiens, UniProt Q08345), sequence (Q08345 19-913): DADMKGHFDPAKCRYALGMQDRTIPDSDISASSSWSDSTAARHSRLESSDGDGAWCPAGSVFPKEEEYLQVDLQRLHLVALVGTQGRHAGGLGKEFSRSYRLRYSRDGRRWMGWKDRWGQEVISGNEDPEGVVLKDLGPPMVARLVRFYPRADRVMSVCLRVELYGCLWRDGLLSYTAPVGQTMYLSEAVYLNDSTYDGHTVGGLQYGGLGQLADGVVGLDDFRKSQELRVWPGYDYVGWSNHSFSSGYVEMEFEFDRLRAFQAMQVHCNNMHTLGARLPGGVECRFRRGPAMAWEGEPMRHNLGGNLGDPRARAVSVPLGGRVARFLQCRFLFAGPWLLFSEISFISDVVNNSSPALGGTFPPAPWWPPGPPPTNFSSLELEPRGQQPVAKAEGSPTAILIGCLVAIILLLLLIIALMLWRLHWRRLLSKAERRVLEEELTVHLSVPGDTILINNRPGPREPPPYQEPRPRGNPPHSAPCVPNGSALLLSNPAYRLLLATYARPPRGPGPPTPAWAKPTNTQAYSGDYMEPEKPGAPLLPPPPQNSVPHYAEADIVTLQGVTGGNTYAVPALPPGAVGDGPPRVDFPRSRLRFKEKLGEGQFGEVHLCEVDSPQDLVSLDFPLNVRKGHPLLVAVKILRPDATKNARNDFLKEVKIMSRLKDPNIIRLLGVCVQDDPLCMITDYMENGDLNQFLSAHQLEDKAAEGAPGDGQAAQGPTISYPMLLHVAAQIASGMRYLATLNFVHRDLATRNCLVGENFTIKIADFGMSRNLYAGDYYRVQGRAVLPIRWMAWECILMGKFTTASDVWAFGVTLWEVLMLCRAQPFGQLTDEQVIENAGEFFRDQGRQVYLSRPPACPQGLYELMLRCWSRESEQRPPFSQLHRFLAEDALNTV
Outline: as §1

[13] = molecular target: panel of human kinases (kinase named in endpoint) (Homo sapiens, UniProt Q5S007); conditions: 10 µM; read-out: Activity (%), LRRK2(h)
Outline: as §1

[14] = molecular target: panel of human kinases (kinase named in endpoint) (Homo sapiens, UniProt P21802); conditions: 10 µM; read-out: Activity (%), FGFR2(h)
Outline: as §1

[15] = molecular target: panel of human kinases (kinase named in endpoint) (Homo sapiens, UniProt Q9Y2U5); conditions: 10 µM; read-out: Activity (%), MEKK2(h)
Outline: as §1

[16] = molecular target: panel of human kinases (kinase named in endpoint) (Homo sapiens, UniProt P51955); conditions: 10 µM; read-out: Activity (%), NEK2(h)
Outline: as §1

[17] = molecular target: panel of human kinases (kinase named in endpoint) (Homo sapiens, UniProt O14920); conditions: 10 µM; read-out: Activity (%), IKKβ(h)
Outline: as §1

[18] = molecular target: panel of human kinases (kinase named in endpoint) (Homo sapiens, UniProt P10721, V560G); conditions: 10 µM; read-out: Activity (%), cKit(V560G)(h)
panel of human kinases (kinase named in endpoint) (Homo sapiens, UniProt P10721, V560G), sequence (P10721 26-976 V560G): as the sequence (P10721 26-976 D816V) above, with V535G, V791D counted along it
Outline: as §1

[19] = molecular target: panel of human kinases (kinase named in endpoint) (Homo sapiens, UniProt Q8IWQ3); conditions: 10 µM; read-out: Activity (%), BrSK2(h)
Outline: as §1

[20] = molecular target: panel of human kinases (kinase named in endpoint) (Homo sapiens, UniProt P51817); conditions: 10 µM; read-out: Activity (%), PrKX(h)
Outline: as §1

[21] = molecular target: panel of human kinases (kinase named in endpoint) (Homo sapiens, UniProt P25098); conditions: 10 µM; read-out: Activity (%), GRK2(h)
panel of human kinases (kinase named in endpoint) (Homo sapiens, UniProt P25098), sequence (P25098 whole entry): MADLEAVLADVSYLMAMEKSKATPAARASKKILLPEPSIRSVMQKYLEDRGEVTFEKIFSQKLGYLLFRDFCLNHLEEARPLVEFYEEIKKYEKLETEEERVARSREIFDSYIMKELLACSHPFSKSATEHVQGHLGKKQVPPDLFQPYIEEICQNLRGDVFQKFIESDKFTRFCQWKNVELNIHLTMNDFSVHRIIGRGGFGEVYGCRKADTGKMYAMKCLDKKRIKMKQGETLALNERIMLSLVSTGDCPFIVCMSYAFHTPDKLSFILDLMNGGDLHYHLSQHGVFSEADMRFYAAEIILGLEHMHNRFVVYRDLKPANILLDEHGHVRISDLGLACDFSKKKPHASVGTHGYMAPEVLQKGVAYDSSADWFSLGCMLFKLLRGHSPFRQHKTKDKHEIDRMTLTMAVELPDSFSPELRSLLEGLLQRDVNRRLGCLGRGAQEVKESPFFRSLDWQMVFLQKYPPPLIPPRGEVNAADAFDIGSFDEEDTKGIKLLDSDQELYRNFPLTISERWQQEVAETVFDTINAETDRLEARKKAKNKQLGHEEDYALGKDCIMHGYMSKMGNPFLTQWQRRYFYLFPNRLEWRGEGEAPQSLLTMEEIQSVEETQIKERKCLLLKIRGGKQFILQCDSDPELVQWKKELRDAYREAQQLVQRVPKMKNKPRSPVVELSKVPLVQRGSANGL
Outline: as §1

[22] = molecular target: panel of human kinases (kinase named in endpoint) (Homo sapiens, UniProt P00519, Y253F); conditions: 10 µM; read-out: Activity (%), Abl(Y253F)(h)
Outline: as §1

[23] = molecular target: panel of human kinases (kinase named in endpoint) (Homo sapiens, UniProt Q04771); conditions: 10 µM; read-out: Activity (%), ALK2(h)
Outline: as §1

[24] = molecular target: panel of human kinases (kinase named in endpoint) (Homo sapiens, UniProt P08631); conditions: 10 µM
panel of human kinases (kinase named in endpoint) (Homo sapiens, UniProt P08631), sequence (P08631 whole entry): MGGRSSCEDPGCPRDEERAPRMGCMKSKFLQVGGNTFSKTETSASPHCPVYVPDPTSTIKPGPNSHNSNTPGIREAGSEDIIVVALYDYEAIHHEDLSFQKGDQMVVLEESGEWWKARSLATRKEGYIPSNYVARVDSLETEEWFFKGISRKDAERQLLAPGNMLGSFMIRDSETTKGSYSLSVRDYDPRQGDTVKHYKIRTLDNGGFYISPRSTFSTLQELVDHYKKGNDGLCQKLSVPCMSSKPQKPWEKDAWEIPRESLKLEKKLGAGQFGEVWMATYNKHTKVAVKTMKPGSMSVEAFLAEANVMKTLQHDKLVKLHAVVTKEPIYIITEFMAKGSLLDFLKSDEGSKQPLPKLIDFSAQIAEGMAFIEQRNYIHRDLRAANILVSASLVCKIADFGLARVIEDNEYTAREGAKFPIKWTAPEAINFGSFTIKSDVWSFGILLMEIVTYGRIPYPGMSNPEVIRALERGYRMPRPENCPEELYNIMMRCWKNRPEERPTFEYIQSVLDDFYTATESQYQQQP
Outline: as §1

[25] = molecular target: panel of human kinases (kinase named in endpoint) (Homo sapiens, UniProt Q9NYV4); conditions: 10 µM; read-out: Activity (%), CDK12/cyclinK(h)
Outline: as §1

SMILES: CC(C)C(=O)Nc1nc2cc(-c3ccc4c(c3)c(C(=O)NC(C)c3ccccc3)cn4C)ccn2n1 (centres unmarked) [RI-962]
- activity at 10 µM [1]: 106%
- activity at 10 µM [2]: 92%
- activity at 10 µM [3]: 92%
- activity at 10 µM [4]: 65%
- activity at 10 µM [5]: 83%
- activity at 10 µM [6]: 94%
- activity at 10 µM [7]: 124%
- activity at 10 µM [8]: 90%
- activity at 10 µM [9]: 97%
- activity at 10 µM [10]: 60%
- activity at 10 µM [11]: 103%
- activity at 10 µM [12]: 104%
- activity at 10 µM [13]: 102%
- activity at 10 µM [14]: 107%
- activity at 10 µM [15]: 98%
- activity at 10 µM [16]: 100%
- activity at 10 µM [17]: 88%
- activity at 10 µM [18]: 95%
- activity at 10 µM [19]: 110%
- activity at 10 µM [20]: 126%
- activity at 10 µM [21]: 86%
- activity at 10 µM [22]: 102%
- activity at 10 µM [23]: 104%
- activity at 10 µM ([24]; read-out: Activity (%), Hck(h)): 93%
- activity at 10 µM ([24]; read-out: Activity (%), Hck(h) activated): 97%
- activity at 10 µM [25]: 117%
